In paper PMC4467398, “Preclinical antitumor activity of ST7612AA1: a new oral thiol-based histone deacetylase (HDAC) inhibitor” (Oncotarget, 2014):

Tested on: DOHH2 and TMD8 DLBCL cells
Experiment: Gene expression profiling (HumanHT-12 v4 BeadChip, limma), ST7612AA1 300 nM 8 hrs vs DMSO
Type: cell-based, human
Details: 300 nM 8 hrs vs DMSO

CC(=O)SCCCCC[C@H](NC(=O)[C@H]1CCC(=O)N1)C(=O)Nc1ccccc1 [ST7612AA1]
log ratio ESAM (probe ILMN_1668092): 7.54E-01 | log ratio EVI2A (ILMN_1733579): -1.21E+00 | log ratio EXOSC8 (ILMN_1756162): -8.59E-01 | log ratio EXTL2 (ILMN_2388425): 6.00E-01 | log ratio F11R (probe ILMN_2342033): 8.81E-01 | log ratio FAIM (ILMN_1690101): -1.08E+00 | log ratio FAIM (ILMN_2351548): -9.70E-01 | log ratio FAM49A (ILMN_1794038): 6.23E-01 | log ratio FAM65A (probe ILMN_1680037): 7.70E-01 | log ratio FAM108A2 (ILMN_3178529): 6.40E-01 | log ratio FAM110A (ILMN_2323944): 6.14E-01 | log ratio FAM116B (probe ILMN_1659029): 7.74E-01 | log ratio FAM120B (probe ILMN_1679641): 7.62E-01 | log ratio FAM136A (ILMN_1655307): -1.26E+00 | log ratio FAM136B (ILMN_3241756): -7.94E-01 | log ratio FAM149B1 (probe ILMN_3245452): 7.21E-01 | log ratio FAM160B1 (ILMN_3231638): -6.11E-01 | log ratio FAM164A (ILMN_1789558): 6.20E-01 | log ratio FAM167A (probe ILMN_3248511): 7.13E-01 | log ratio FBXO15 (ILMN_1755281): 6.57E-01 | log ratio FBXO18 (probe ILMN_1729430): 7.97E-01 | log ratio FCGRT (probe ILMN_1705302): 6.92E-01 | log ratio FCHSD2 (ILMN_1815734): -6.17E-01 | log ratio FERMT3 (ILMN_2366330): -1.23E+00 | log ratio FGD2 (probe ILMN_2115005): 7.14E-01 | log ratio FGF9 (probe ILMN_1762531): 7.84E-01 | log ratio FHL1 (probe ILMN_1805842): 7.76E-01 | log ratio FKBP11 (ILMN_1787345): -9.71E-01 | log ratio FLJ22795 (probe ILMN_2150802): 8.56E-01 | log ratio FNBP1 (ILMN_1797342): 6.67E-01 | log ratio FOXC1 (probe ILMN_1738401): 8.63E-01 | log ratio FOXO1 (probe ILMN_1738816): 8.61E-01 | log ratio FOXO4 (probe ILMN_1712095): 6.93E-01 | log ratio FSD1 (probe ILMN_1813490): 7.25E-01 | log ratio FUCA1 (probe ILMN_1752728): 8.57E-01 | log ratio FVT1 (ILMN_2154052): 6.36E-01 | log ratio FXYD5 (ILMN_2309848): 6.27E-01 | log ratio G6PD (probe ILMN_1697559): 6.93E-01 | log ratio GABARAPL2 (probe ILMN_1796458): 7.62E-01 | log ratio GAMT (probe ILMN_1756469): 8.74E-01 | log ratio GAPT (ILMN_1675191): -1.10E+00 | log ratio GAPT (ILMN_3242271): -1.08E+00 | log ratio GAR1 (ILMN_2412549): -9.54E-01 | log ratio GAR1 (ILMN_3263329): -9.36E-01 | log ratio GATM (probe ILMN_1729180): 7.75E-01 | log ratio GATS (ILMN_1699631): 6.00E-01 | log ratio GBE1 (ILMN_1789702): -8.91E-01 | log ratio GCDH (ILMN_2296843): 6.56E-01 | log ratio GCH1 (probe ILMN_1812759): 7.11E-01 | log ratio GINS3 (ILMN_1754272): -8.17E-01 | log ratio GM2A (ILMN_2221046): 5.90E-01 | log ratio GMEB2 (ILMN_1683204): -5.99E-01 | log ratio GNG11 (ILMN_1782419): 6.02E-01 | log ratio GOLGB1 (probe ILMN_1747935): 7.13E-01 | log ratio GPATCH4 (ILMN_2383305): -1.16E+00 | log ratio GPATCH4 (ILMN_2383306): -1.12E+00 | log ratio GPER (ILMN_1795298): -1.70E+00 | log ratio GPER (ILMN_2384056): -1.82E+00 | log ratio GPT2 (probe ILMN_1684158): 8.12E-01 | log ratio GPX4 (ILMN_1734353): 6.05E-01 | log ratio GPX7 (ILMN_1726030): -1.08E+00 | log ratio GRB2 (ILMN_1748797): 6.01E-01 | log ratio GRN (probe ILMN_1724250): 8.24E-01 | log ratio GRWD1 (ILMN_1742166): -6.02E-01 | log ratio GSDMB (ILMN_2347193): 6.61E-01 | log ratio GSTO1 (ILMN_2227573): -6.01E-01 | log ratio GTF2B (ILMN_1737857): 6.21E-01 | log ratio GTF2I (ILMN_1673917): -1.01E+00 | log ratio GTF2IRD2B (ILMN_1680501): -1.15E+00 | log ratio GTF3C2 (ILMN_1746457): -7.85E-01 | log ratio GTF3C6 (ILMN_1691578): -1.19E+00 | log ratio GTPBP6 (ILMN_1776080): -8.00E-01 | log ratio HABP4 (ILMN_1792384): 5.90E-01 | log ratio HABP4 (probe ILMN_2107991): 7.82E-01 | log ratio HAGH (probe ILMN_1772731): 8.84E-01 | log ratio HCFC1 (ILMN_1732705): -1.50E+00 | log ratio HDDC2 (ILMN_1753745): -8.45E-01 | log ratio HDGF (ILMN_1765621): -8.47E-01 | log ratio HERC1 (probe ILMN_1786211): 7.40E-01 | log ratio HERC6 (ILMN_1654639): -6.08E-01 | log ratio HERPUD1 (probe ILMN_2374159): 8.50E-01 | log ratio HEY1 (probe ILMN_1788203): 8.91E-01 | log ratio HEY2 (probe ILMN_1682034): 7.56E-01 | log ratio HIST1H1C (probe ILMN_1757406): 8.24E-01 | log ratio HIST2H2AA3 (probe ILMN_2144426): 8.03E-01 | log ratio HK2 (ILMN_1723486): -1.09E+00 | log ratio HLA-DOA (ILMN_1659075): 6.55E-01 | log ratio HLA-DPA1 (probe ILMN_1772218): 8.12E-01 | log ratio HLA-DQA1 (probe ILMN_1808405): 8.25E-01 | log ratio HLA-DRB4 (probe ILMN_1752592): 7.27E-01 | log ratio HLA-DRB6 (ILMN_2066066): 5.94E-01 | log ratio HLA-E (probe ILMN_1765258): 8.07E-01 | log ratio HLTF (ILMN_1798588): 6.54E-01 | log ratio HLTF (probe ILMN_1673820): 7.48E-01 | log ratio HNRNPR (ILMN_3177285): -5.97E-01 | log ratio HNRPH3 (ILMN_1654920): -7.98E-01 | log ratio HNRPLL (ILMN_1791575): 6.20E-01 | log ratio HOOK2 (probe ILMN_1682147): 7.36E-01 | log ratio HPSE (ILMN_1779547): 5.94E-01 | log ratio HSD17B8 (ILMN_1715324): 6.72E-01 | log ratio HSPA1B (probe ILMN_1660436): 7.16E-01 | log ratio HSPC111 (ILMN_1704055): -1.16E+00 | log ratio ID1 (probe ILMN_1664861): 7.75E-01 | log ratio IFFO1 (probe ILMN_2348268): 8.07E-01 | log ratio IFI16 (ILMN_1710937): -9.06E-01 | log ratio IFI35 (ILMN_1745374): -8.00E-01 | log ratio IFRD2 (ILMN_1742031): -7.99E-01 | log ratio IGSF3 (probe ILMN_1704353): 8.50E-01 | log ratio INTS10 (ILMN_1679483): -8.21E-01 | log ratio IRAK1 (ILMN_2379130): -1.37E+00 | log ratio IRAK2 (ILMN_1745964): 6.17E-01 | log ratio ISG20L1 (ILMN_1814282): -8.55E-01 | log ratio ISOC2 (ILMN_1769158): -9.83E-01 | log ratio ITFG2 (ILMN_1701244): -8.71E-01 | log ratio ITFG3 (ILMN_1810055): 6.64E-01 | log ratio ITGA4 (ILMN_1747052): -6.00E-01 | log ratio ITGB1 (ILMN_1723467): 6.32E-01 | log ratio ITGB1 (ILMN_2383934): 6.80E-01 | log ratio ITGB1 (probe ILMN_1714820): 7.06E-01 | log ratio ITPKA (probe ILMN_1776516): 7.10E-01 | log ratio JAK1 (probe ILMN_1793384): 7.91E-01 | log ratio KAT2A (ILMN_1782247): -6.02E-01 | log ratio KBTBD2 (ILMN_1784540): -6.12E-01 | log ratio KEAP1 (ILMN_2410771): -8.88E-01 | log ratio KEAP1 (ILMN_2410772): -9.23E-01 | log ratio KIAA0020 (ILMN_1665483): -7.91E-01 | log ratio KIAA0368 (ILMN_1847822): -1.24E+00 | log ratio KIAA1602 (ILMN_1763640): 6.30E-01 | log ratio KIF3B (ILMN_1702279): 6.21E-01 | log ratio KIFC2 (ILMN_1803018): 6.72E-01 | log ratio KLF9 (ILMN_1778523): 6.77E-01 | log ratio KLHDC5 (ILMN_1727134): -1.09E+00 | log ratio KLHL5 (probe ILMN_1706687): 8.05E-01 | log ratio KLRAQ1 (probe ILMN_3271092): 7.11E-01 | log ratio KPNB1 (ILMN_1703949): -1.01E+00 | log ratio L3MBTL2 (ILMN_3307786): -8.52E-01 | log ratio LAMC1 (ILMN_1810852): 6.63E-01 | log ratio LANCL2 (ILMN_1708009): -8.15E-01 | log ratio LARP1B (ILMN_1733390): -7.84E-01 | log ratio LASS2 (ILMN_1726108): -7.85E-01 | log ratio LASS2 (ILMN_2400500): -9.26E-01 | log ratio LCMT1 (probe ILMN_1688452): 7.21E-01 | log ratio LCMT1 (probe ILMN_2336186): 7.52E-01 | log ratio LIN9 (ILMN_2137084): -6.10E-01 | log ratio LMNA (probe ILMN_1737394): 7.98E-01 | log ratio LOC151162 (probe ILMN_3238058): 7.72E-01 | log ratio LOC205251 (ILMN_1693685): -6.17E-01 | log ratio LOC253039 (probe ILMN_3236498): 8.10E-01 | log ratio LOC283683 (probe ILMN_1659327): 8.30E-01 | log ratio LOC285176 (ILMN_1694327): -5.99E-01
